Data set [1] is described as follows: Stability of paclitaxel depending on pH. It counts as physicochemical.
A short description of a further data set: physchem. As to the method:
Preferably 1 mg-150 mg, more preferably 10 mg to 90 mg and most preferably 40 mg to 60 mg of paclitaxel are dissolved in one ml of DMSO.

The values that follow come from patent US20100145266A1, “METHOD FOR LOADING STRUCTURED SURFACES” (priority 2007, published 2010).

A word on the solubility: it is the dissolved amount per volume that the medium holds.

On to `CC(=O)O[C@H]1C(=O)[C@@]2(C)[C@H]([C@H](OC(=O)c3ccccc3)[C@]3(O)C[C@H](OC(=O)[C@H](O)[C@@H](NC(=O)c4ccccc4)c4ccccc4)C(C)=C1C3(C)C)[C@]1(OC(C)=O)CO[C@@H]1C[C@@H]2O` (relative stereo) [paclitaxel, [2aR-[2a,4,4a,6,9(R*,S*),11,12,12a,12b]]-(benzoylamino)-hydroxybenzene propionic acid 6,12b-bis-(acetyloxy)-12-(benzoyloxy)-2a-3,4,4a,5,6,9,10,11,12,12a,12b-dodecahydro-4,11-dihydroxy-4a,8,13,13-tetramethyl-5-oxo-7,11-methano-1H-cyclodeca[3,4]benz[1,2-b]oxet-9-yl ester)], for which the “stability at alkaline pH” value in data set [1] (alkaline pH) is on record as “comparatively instable”. Further, in data set [1] (pH between 3 and 5), the “stability at a pH between 3 and 5” value is on record as “especially stable”. Besides, in “physchem”, the “solubility in anhydrous ethanol” value is given as “highly soluble”, the “solubility in dimethyl sulfoxide (DMSO)” value is listed as “highly soluble” and the solubility in methanol entry is “highly soluble”. The solubility in the data set “physchem” (organic solvent or mixture) was no more than 150 mg/mL.
